Measured values from US9067898B1, “Isothiazole derivatives as GPR120 agonists for the treatment of type II diabetes” (Janssen Pharmaceutica NV, priority 2014, dated 2015).

Legend:
[1] = biological target: T1, Human GPR120 short form (Homo sapiens, UniProt Q5NUL3); assay: Human GPR120 calcium flux assay (FLIPR), Procedure Calcium A; type: cell-based; conditions: HEK-293 cells expressing human GPR120 short form, 2500 cells/well; read-out: GPR120 Ca2+ Assay A EC50
T1 construct: expressed in transfected cells
T1 sequence (Q5NUL3 1-361): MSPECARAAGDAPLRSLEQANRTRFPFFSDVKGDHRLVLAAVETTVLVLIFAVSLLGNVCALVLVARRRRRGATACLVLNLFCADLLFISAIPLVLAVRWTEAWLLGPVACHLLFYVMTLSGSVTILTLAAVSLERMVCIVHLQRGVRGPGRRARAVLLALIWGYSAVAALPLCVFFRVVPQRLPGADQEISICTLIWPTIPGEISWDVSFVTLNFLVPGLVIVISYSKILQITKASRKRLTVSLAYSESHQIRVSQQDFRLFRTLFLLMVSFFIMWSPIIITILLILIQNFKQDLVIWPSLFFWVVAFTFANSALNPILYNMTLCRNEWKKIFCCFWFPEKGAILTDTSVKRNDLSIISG
How it was run: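 HEK293 cells stably expressing the short isoform (NM_001195755.1), 2500/well, starved 1 h, then loaded with Fluo-4 NW plus probenecid (30 min 37 °C, 15 min RT). Compound solutions 0.012–100 μM, 0.2% DMSO final; FLIPR read 300 s after addition. EC50 from Fmax−Fmin fitted to variable-slope sigmoid (Hill <2).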

[2] = biological target: T2, short form of the GPR120 receptor (GPR120S) (Homo sapiens, UniProt Q5NUL3); assay: Human GPR120 DiscoveRx PathHunter Beta-Arrestin assay, Procedure β-arrestin B; type: cell-based; conditions: PathHunter CHO-K1 GPR120S β-Arrestin cell line, 5000 cells/well, read-out: hGPR120 β-arrestin B EC50
T2 construct: host or cells: PathHunter CHO-K1 GPR120S β-Arrestin Cell Line
T2 sequence (P32121 whole entry partner, one chain of several): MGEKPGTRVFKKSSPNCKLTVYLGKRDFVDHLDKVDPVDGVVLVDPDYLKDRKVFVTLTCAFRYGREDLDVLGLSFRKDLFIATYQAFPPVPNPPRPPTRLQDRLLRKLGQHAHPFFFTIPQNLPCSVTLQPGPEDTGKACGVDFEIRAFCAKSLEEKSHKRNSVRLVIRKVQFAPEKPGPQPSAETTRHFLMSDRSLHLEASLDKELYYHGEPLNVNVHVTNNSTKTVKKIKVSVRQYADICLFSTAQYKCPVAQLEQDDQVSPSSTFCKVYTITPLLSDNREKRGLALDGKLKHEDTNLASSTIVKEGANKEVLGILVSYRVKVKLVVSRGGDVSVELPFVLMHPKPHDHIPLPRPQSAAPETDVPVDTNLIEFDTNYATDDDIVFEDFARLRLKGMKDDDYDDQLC
From the text: The binding of an agonist (medium/long chain fatty acids or small molecule agonists) to the G-protein-coupled receptor GPR120 activates phospholipase C, leading to release of intracellular Ca^+2 through the generation of inositol 1,4,5-trisphosphate (InsP3 or IP3). GPR120 activation can also trigger intracellular signaling via recruitment of Beta-Arrestin. In the present method, agonist-induced activation of the human GPR120 receptor is monitored through the use of PathHunter CHO-K1 GPR120 Beta-Arrestin Cell Line engineered by DiscoveRx, as detailed below. The cell lines are designed to co-express both the ProLink/Enzyme Donor (PK)-tagged GPCR and the Enzyme […] (EA)-tagged Beta-Arrestin fusion proteins. Upon GPR120 receptor stimulation/activation, the EA-tagged Beta-Arrestin portion is translocated to the tagged receptor, where the two enzyme fragments are brought within close proximity. Under these conditions, these fragments can interact and form an active Beta-gal enzyme complex through Enzyme Fragment Complementation (EFC). This active Beta-gal complex can enzymatically hydrolyse the substrate to produce a detectable light signal; therefore, activation as a function of agonist concentration can be expressed as an EC50 value to determine relative compound activities. This in vitro assay therefore serves to assess compound agonist activity of the GPR120. Procedure β-Arrestin A: In Procedure β-arrestin A, the cell used were PathHunter CHO-K1 GPR120 β-Arrestin Cell Line, expressing the long form of human GPR120 (Genbank accession number NM 181745), with 3000 cells per well. Procedure β-Arrestin B: In Procedure 3-arrestin B the cells used were PathHunter CHO-K1 GPR120S β-Arrestin Cell Line, expressing the short form of the GPR120 receptor (Accession #NM_181745), with 5000 cells/well. Assay Procedure:
The selected CHO-K1 GPR120 β-Arrestin cells were cultured in Ham's F12 media supplemented with 10% fetal bovine serum (FBS), 1% Glutamine, lx p/s, 800 μg/mL G418 and 300 μg/mL Hygromycin B (for selection). Cell stocks were maintained and grown in a sub-confluent state using standard cell culture procedures. The day before the experiment, the cells were harvested with non-enzymatic cell dissociation buffer and re-suspended in complete growth media at the desired concentration. A Corning 384-plate was then seeded with the proper number of cells in a volume of 25 μL, per well. The seeded plates were incubated overnight at 37° C.
On the day of the experiment, the Assay Buffer containing (a) HBSS with Ca^++ and Mg^++, (b) 20 mM HEPES, and (c) 0.1% BSA stabilizer (pH 7.4) was prepared. The growth medium was gently removed from the cell plates and 20 μL of Assay Buffer added to each well. The plate was then incubated at 37° C. for 60 min. Test compounds were serially diluted in Assay Buffer to desired concentrations (more particularly to one or more of the following μM concentrations: 25, 12.5, 6.25, 3.125, 1.5625, 0.78125, 0.390625, 0.1953125, 0.09765625, 0.048828125, 0.024414063, 0.012207031). Five μL of compound dilution was then added to each well and the plate incubated at 37° C. for 90 min. The detection reagents were prepared according to the manufacture's instruction. Twelve μL of the detection reagents were added to each well and the plate incubated at room temperature for 60 min.
The plates were read on an EnVision instrument, using Protocol name: Luminescence, Plate type: 384 Costar, Measurement height: 3 mm, Measurement time: 1 s, Aperture: 384 Plate aperture. The % activity relative to the positive control was calculated using the following equation:
The % Activity values were plotted versus the concentration of test compound and fitted to a sigmoidal dose-response curve with a Hill slope=1 (fixed value) using nonlinear regression with GraphPad Prism 5.0 to calculate the EC50 values. […]

| Compound | EC50 [1] [nM] | EC50 [2] [nM] |
| --- | --- | --- |
| COc1cc(F)c(-c2nsc(C(F)(F)F)c2COc2ccc(CCC(=O)O)c(C)c2C)c(F)c1 [Cpd 229, 3-(4-[[3-(2,6-difluoro-4-methoxyphenyl)-5-(trifluoromethyl)-1,2-thiazol-4-yl]methoxy]-2,3-dimethylphenyl)propanoic acid] | 936 | 1810 |
| O=C(O)CCc1cc(F)c(OCc2c(-c3ccc(F)cc3F)nsc2C(F)(F)F)c(F)c1 [Cpd 174, 3-(4-((3-(2,4-difluorophenyl)-5-(trifluoromethyl)isothiazol-4-yl)methoxy)-3,5-difluorophenyl)propanoic acid] | 246 | 85 |
| 3-(4-((3-(2,4-difluorophenyl)-5-(trifluoromethyl)isothiazol-4-yl)methoxy)-3,5-difluorophenyl)propanoic acid [Cpd 174] | 382 | 1510 |
| O=C(O)CCc1ccc(OCc2c(C(F)(F)F)nsc2-c2ccc(Cl)cc2)cc1Cl [Cpd 208, 3-(2-chloro-4-[[5-(4-chlorophenyl)-3-(trifluoromethyl)-1,2-thiazol-4-yl]methoxy]phenyl)propanoic acid] | 578 | 554 |
| O=C(O)CCc1cc(F)c(OCc2c(C(F)(F)F)nsc2-c2ccc(Cl)c(F)c2)c(F)c1 [Cpd 110, 3-(4-[[5-(4-chloro-3-fluorophenyl)-3-(trifluoromethyl)-1,2-thiazol-4-yl]methoxy]-3,5-difluorophenyl) propanoic acid] | 94 | 105 |
| COc1ccc(-c2nsc(C(F)(F)F)c2COc2ccc(CCC(=O)O)c(C)c2C)cc1F [Cpd 172, 3-(4-[[3-(3-fluoro-4-methoxyphenyl)-5-(trifluoromethyl)-1,2-thiazol-4-yl]methoxy]-2,3-dimethylphenyl)propanoic acid] | 229 | 147 |
| COc1cc(OCc2c(Cl)nsc2-c2ccccc2C)ccc1CCC(=O)O [Cpd 222, 3-(4-((3-chloro-5-(o-tolyl)isothiazol-4-yl)methoxy)-2-methoxyphenyl)propanoic acid] | 757 | 1950 |
| Cc1c(CCC(=O)O)ccc(OCc2c(C3CC(F)(F)C3)nsc2C(F)(F)F)c1C [Cpd 137, 3-(4-[[3-(3,3-difluorocyclobutyl)-5-(trifluoromethyl)-1,2-thiazol-4-yl]methoxy]-2,3-dimethylphenyl) propanoic acid] | 137 | 413 |
| Cc1c(CCC(=O)O)ccc(OCc2c(C3CCC(F)(F)C3)nsc2C(F)(F)F)c1C (stereo not drawn) [Cpd 199, 3-(4-[[3-(3,3-difluorocyclopentyl)-5-(trifluoromethyl)-1,2-thiazol-4-yl]methoxy]-2,3-dimethylphenyl)propanoic acid] | 423 | 622 |
| O=C(O)CCc1cc(F)c(OCc2c(-c3ccccc3)nsc2C(F)(F)F)c(F)c1 [Cpd 145, 3-(3,5-difluoro-4-((3-phenyl-5-(trifluoromethyl)isothiazol-4-yl)methoxy)phenyl)propanoic acid] | 160 | 132 |
| 3-(4-[[3-(4-ethylphenyl)-5-methoxy-1,2-thiazol-4-yl]methoxy]-2,3-dimethylphenyl)propanoic acid [Cpd 228] | 89 | 118 |
| COc1cccc(-c2nsc(C(F)(F)F)c2COc2ccc(CCC(=O)O)c(C)c2C)c1 [Cpd 126, 3-(4-[[3-(3-methoxyphenyl)-5-(trifluoromethyl)-1,2-thiazol-4-yl]methoxy]-2,3-dimethylphenyl) propanoic acid] | 121 | 223 |
| Cc1ccc(-c2snc(C(F)(F)F)c2COc2c(F)cc(CCC(=O)O)cc2F)c(F)c1 [Cpd 95, 3-(3,5-difluoro-4-[[5-(2-fluoro-4-methylphenyl)-3-(trifluoromethyl)-1,2-thiazol-4-yl]methoxy]phenyl)propanoic acid] | 72 | 116 |
| COc1cc(F)c(-c2nsc(C(F)(F)F)c2COc2c(F)cc(CCC(=O)O)cc2F)c(F)c1 [Cpd 197, 3-(4-[[3-(2,6-difluoro-4-methoxyphenyl)-5-(trifluoromethyl)-1,2-thiazol-4-yl]methoxy]-3,5-difluorophenyl)propanoic acid] | 392 | 224 |
| Cc1c(CCC(=O)O)ccc(OCc2c(-c3ccc(C(F)(F)F)cc3)nsc2C(F)(F)F)c1C [Cpd 224, 3-(2,3-dimethyl-4-[[5-(trifluoromethyl)-3-[4-(trifluoromethyl)phenyl]-1,2-thiazol-4-yl]methoxy]phenyl)propanoic acid] | 831 | 229 |
| Cc1cc(CCC(=O)O)c(C(F)(F)F)cc1OCc1c(Cl)nsc1-c1ccccc1C [Cpd 210, 3-(4-((3-chloro-5-(o-tolyl)isothiazol-4-yl)methoxy)-5-methyl-2-(trifluoromethyl)phenyl)propanoic acid] | 580 | 1050 |
| CCc1cc(CCC(=O)O)c(C(F)(F)F)cc1OCc1c(Cl)nsc1-c1ccccc1C [Cpd 215, 3-(4-((3-chloro-5-(o-tolyl)isothiazol-4-yl)methoxy)-5-ethyl-2-(trifluoromethyl)phenyl)propanoic acid] | 648 | 2140 |
| CCc1ccc(-c2nsc(C(F)(F)F)c2COc2ccc(CCC(=O)O)c(C)c2C)c(F)c1 [Cpd 225, 3-(4-((3-(4-ethyl-2-fluorophenyl)-5-(trifluoromethyl)isothiazol-4-yl)methoxy)-2,3-dimethylphenyl)propanoic acid] | 840 | 227 |
| O=C(O)CCc1cc(F)c(OCc2c(-c3ccc(C(F)(F)F)cc3)nsc2C(F)(F)F)c(F)c1 [Cpd 121, 3-(3,5-difluoro-4-[[5-(trifluoromethyl)-3-[4-(trifluoromethyl)phenyl]-1,2-thiazol-4-yl]methoxy]phenyl)propanoic acid] | 108 | 51 |
| CC(Cc1ccc(OCc2c(-c3ccc(Cl)c(F)c3)nsc2C(F)(F)F)cc1)C(=O)O (stereo not drawn) [Cpd 165, 3-(4-((3-(4-chloro-3-fluorophenyl)-5-(trifluoromethyl)isothiazol-4-yl)methoxy)phenyl)-2-methylpropanoic acid] | 215 | 435 |
| CCc1cc(OCc2c(Cl)nsc2-c2ccccc2C)ccc1CCC(=O)O [Cpd 227, 3-(4-[[3-chloro-5-(2-methylphenyl)-1,2-thiazol-4-yl]methoxy]-2-ethylphenyl)propanoic acid] | 867 | 3780 |
